Earlier results in US20090312358A1, “METHOD FOR MANAGEMENT OF DIARRHEA” (TRUSTEES OF BOSTON UNIVERSITY, priority 2006, published 2009).
Like-named read-outs stand apart in the source and are kept apart here.

What was measured:
[1] = compared to methylnaltrexone
[2] = for elimination half-life: in vivo; for time to peak plasma levels: after oral administration
[3] = for antidiarrheal potency relative to codeine: compared to codeine
[4] = repeated dosing in mice
[5] = oral

Q: For C[C@H]1CN(C[C@H](Cc2ccccc2)C(=O)NCC(=O)O)CC[C@@]1(C)c1cccc(O)c1 [alvimopan, Alvimopan], which “potency in reversing the effects of morphine in the gastrointestinal tract relative to methylnaltrexone” value [1] is on record?
A: approximately 200 times

Q: With COc1ccc2c3c1O[C@H]1[C@@H](O)C=C[C@H]4[C@@H](C2)N(C)CC[C@@]341 [codeine] as the molecule, how does the elimination half-life [2] read?
A: ~3 h

Q: With N#CC(CCN1CCC(C(=O)O)(c2ccccc2)CC1)(c1ccccc1)c1ccccc1 [difenoxin] as the molecule, how does the “antidiarrheal potency relative to codeine” value [3] read?
A: seventy-seven

Q: And the “antidiarrheal potency relative to diphenoxylate” value ([3]; compared to diphenoxylate)?
A: five

Q: What about the “apparent half-life of difenoxin produced by de-esterification of diphenoxylate” value ([2]; healthy volunteers) of the same molecule?
A: approximately 50 minutes

Q: And the elimination half-life [2]?
A: 7 to 12 h

Q: Which “antidiarrheal potency relative to codeine” value [3] does the source give for CCOC(=O)C1(c2ccccc2)CCN(CCC(C#N)(c2ccccc2)c2ccccc2)CC1 [diphenoxylate] here?
A: fifteen

Q: What about the “time to peak plasma levels” value [2] of the same molecule?
A: approximately 2 hours

Q: What does the source list for CN(C)C(=O)C(CCN1CCC(O)(c2ccc(Cl)cc2)CC1)(c1ccccc1)c1ccccc1 [loperamide, Loperamide]?
A: development of tolerance to antimotility effects [4]: two; time to achieve symptomatic control of acute diarrhea ([5]; acute diarrhea): 9 to 20 h; time to peak plasma levels [2]: 3 to 5 h; elimination half-life [2]: 9 to 14 h

Q: With C[N@+]1(CC2CC2)CC[C@]23c4c5ccc(O)c4O[C@H]2C(=O)CC[C@@]3(O)[C@H]1C5 [methylnaltrexone, Methylnaltrexone] as the molecule, how does the “time to restore normal bowel function” value ([5]; opioid bowel dysfunction) read?
A: 4 to 7 h

Q: And the elimination half-life [2]?
A: 3 h

Q: What about the elimination half-life ([2]; listed as Methylnaltrexone) of the same molecule?
A: 2 to 3 h

Q: Which “development of tolerance to antimotility effects” value [4] does the source give for CN1CC[C@]23c4c5ccc(O)c4O[C@H]2[C@@H](O)C=C[C@H]3[C@H]1C5 [morphine] here?
A: not observed

Q: For C=C1CC[C@@]2(O)[C@H]3Cc4ccc(O)c5c4[C@@]2(CCN3CC2CC2)[C@H]1O5 [nalmefene, Nalmefene], which elimination half-life [2] is on record?
A: approximately 11 hours

Q: For O=C1CC[C@@]2(O)[C@H]3Cc4ccc(O)c5c4[C@@]2(CCN3CC2CC2)[C@H]1O5 [naltrexone, Naltrexone], which “time to peak plasma levels” value [2] is on record?
A: about 1 hours
